These results are taken from patent US20240417410A1, “TRICYCLIC COMPOUNDS FOR THE TREATMENT OF CANCER” (Hoffmann-La Roche Inc., priority 2023, published 2024).

The subject of data set [1] is NCI-H1373-luc intracranial tumors. The data set is described as follows: Brain metastasis intracranial model, efficacy (bioluminescence). In kind it is in vivo. From the text: The purpose of this assay is to determine whether brain exposure of the compounds of current invention was sufficient to mediate regression of tumors in experimental Brain Metastases (BM) models.
NCI-H1373 cell line was purchased from the ATCC (CRL-5866). NCI-H1373-Luc cells were generated by WuXi AppTec. For generating NCI-H1373-Luc cell line, NCI-H1373 cells were transduced with GFP-Luc-puro lentivirus vector (HBLV-1014, HANBIO, carrying cDNA coding for firefly luciferase) and then selected with 1 μg/mL puromycin. All cells were authenticated by short tandem repeat fingerprinting, and periodically tested to be Mycoplasma free. H1373-luc cells were cultured in medium containing RPMI1640 (Thermo Fisher Scientific) plus 10% Fetal Bovine Serum (FBS, Thermo Fisher Scientific, 2.5 μg/mL puromycin and 1% Antibiotic-Antimycotic (Thermo Fisher Scientific), at 37° C. in an atmosphere of 5% CO2 in air. The medium was renewed every 2 to 3 days and tumor cells were routinely sub-cultured at a confluence of 80-90%. Cells growing in an exponential growth phase were harvested and counted for inoculation.
Murine studies were conducted at the WuXi AppTec and were performed in compliance with all applicable regulations and guidelines of the Institutional Animal Care and Use Committee (IACUC). Mice were maintained in a special pathogen-free environment and in individual ventilation cages, and food and water will be sterilized before use. 8 to 9 weeks female NU/NU nude mice (Charles River Lab.) were implanted intracarotid injection with 0.5×10^5 NCI-H1373-Luc cells in 100 μL serum-free media. When bioluminescence reached a mean of 1.28E+08 photons/second (range of 5.79E+07-2.685E+08 photons/second) at day 15 post inoculation, tumor-bearing mice were randomized into different groups with 4 mice in each group. The randomization date was denoted as treatment day 0. Afterwards, oral daily dosing of vehicle or Example 24 began and continued for 14 days. Baseline bioluminescent imaging (BLI) began 24 hours prior to initial dosing with vehicle or test articles, and additional imaging time points for all animals were measured twice a week by Xenogen machine (PerkinElmer IVIS Lumina II) between 0-14 days post grouping. […]
TGI (tumor growth inhibition) was calculated for each group using the formula: TGI (%)=[1−(Ti−T0)/(Vi−V0)]×100; Ti is the average tumor bioluminescence of a treatment group on a given day, T0 is the average tumor bioluminescence of the treatment group on the day of treatment start, Vi is the average tumor bioluminescence of the vehicle control group on the same day with Ti, and V0 is the average tumor bioluminescence of the vehicle group on the day of treatment start. […]

The test system of data set [2] is WT HRAS-BRAF complex. Kind of data set: WT HRAS-BRAF with CYPA interaction assay (TR-FRET). In kind it is biochemical. Here is the method:
(§1) In this example, TR-FRET was used to measure the compound or compound-CYPA dependent disruption of the KRAS G12V-BRAF complex to assess inhibition efficacy. The IC50 ratio between WT KRAS/HRAS/NRAS and KRAS G12V mutant was calculated as selective index, which indicated tolerability and safety profile. Disruption of WT KRAS/HRAS/NRAS-BRAF complex by compounds was detected respectively. In assay buffer containing 25 mM HEPES (PH-7.4,4-(2-hydroxyethyl)-1-piperazineethanesulfonic acid, Thermo, 15630080), 0.002% Tween20, 0.1% BSA, 100 mM NaCl, 5 mM MgCl2, 10 μM GMPPNP (Guanosine 5′-[β,γ-imido]triphosphate trisodium salt hydrate, Sigma, G0635), tagless CYPA and GMPPNP loaded 6His-RAS proteins, and GST-BRAF^RBD were mixed in a well of a 384-well assay plate at final concentrations of 50 nM, 6.25 nM and 1 nM, respectively. Compound was present in plate wells as a 16-point 3-fold dilution series starting at a final concentration of 10 μM and incubated for 3 hours. A mixture of MAb Anti-6His-XL665 (Cisbio, 61HISXLB) and Mab anti-GST-TB cryptate (Cisbio, 61GSTTLB) was then added at a final concentration of 6.67 nM and 0.21 nM, respectively, and the plate was incubated for an additional 1.5 hours. TR-FRET signal was read on a PHERstar FSX microplate reader (Ex320 nm, Em 665/615 nm). Compounds that facilitate disruption of the RAS-BRAF complex were identified as those eliciting a decrease in the TR-FRET ratio relative to DMSO control wells.
A general note: TR-FRET usually uses a lanthanide donor and a delayed reading to cut background.

Data set [3] concerns WT KRAS-BRAF complex. Kind of data set: WT KRAS-BRAF with CYPA interaction assay (TR-FRET). In kind it is biochemical. Here is the method: as §1
The mark [4] stands for this setting: day 14, 30 mg/kg, PO, QD, NCI-H1373-luc intracranial.

With `CO[C@@H](C)c1ncc(N2CCN(C)CC2)cc1-c1c2c3cc(cc4c3n1CCC4)-c1csc(n1)C[C@H](NC(=O)[C@H]1[C@H](C)[C@@H]1C)C(=O)N1CCC[C@H](N1)C(=O)OCC(C)(C)C2` (atropisomer, axis not shown; (M)) [Example 24, (1r,2R,3S)-N-[(7S,13S)-(20M)-20-[2-[(1S)-1-methoxyethyl]-5-(4-methylpiperazin-1-yl)-3-pyridyl]-17,17-dimethyl-8,14-dioxo-15-oxa-4-thia-9,21,30,31-tetrazahexacyclo[23.3.1.1^2,5.1^9,13.0^19,27.0^21,26]hentriaconta-1 (28),2,5 (31), 19,25 (29),26-hexaen-7-yl]-2,3-dimethyl-cyclopropanecarboxamide], the “tolerability (overt toxicity, animal weight)” value in data set [1] (30 mg/kg once daily for 14 days, NCI-H1373-luc intracranial model) is given as “no sign of overt toxicity or animal weight loss”. Besides, in data set [1] (setting [4]), the ROI is given as 1.34 ± 0.75 ×10^7 photon/s; the T/C (in general, the result in the treated group divided by that in the control group, in per cent) is 0.52%; the TGI was determined as 104.68%. Moreover, the “Selectivity Index (IC50 ratio) WT HRAS/KRAS G12V” value in data set [2] is 5.4. The “Selectivity Index (IC50 ratio) WT KRAS/KRAS G12V” value in data set [3] worked out at 4.6.
